For data set [1], the system named is A-549 lung carcinoma cells. Description: cells. The format is cell-based, human. The settings on record: MTT assay, 24 h exposure, run in triplicate or greater; read-out: IC50, Lung A-549. As for the experimental part: (§1) The twelve synthesized compounds were evaluated in vitro using the following four human cancer cell lines: cervical adenocarcinoma (HeLa), lung carcinoma (A-549), breast adenocarcinoma (SK-BR-3) and colon adenocarcinoma (HT-29). Cells were treated for 24 h with various concentrations of the compounds, and their cytotoxic activity was then assessed using the [3-(4,5-dimethylthiazol-2-yl)-2,5-diphenyltetrazolium] bromide (MTT) assay.[29] Analysis of the dose-response data obtained yielded IC50 (50% inhibitory concentration) values, which are detailed in Table 1.
(§2) Normally growing cells were plated at 5 × 10^3 cells per well into 96-well plates and incubated for 24 h at 37 °C to allow attachment to the surface. Samples were then added dissolved in a DMSO–PBS vehicle (less than 1% in culture medium) at a range of concentrations. Drugs were run in triplicate or greater and control wells contained appropriate percentages of vehicle. After 24 h of exposure, the antitumor effect was measured using a solution of MTT, which is bioreduced by viable cells into formazan. The formed crystals were solubilized using DMSO and the amount of formazan was measured by reading the absorbance at 570 nm. The absorbance of wells containing only the MTT reagent (the plate blank) was subtracted from all wells.
(§3) The IC50 values were determined by dose response curve analysis and statistical analysis using GraphPad Prism software version 5.0a. […]
(§4) mM L-glutamine and antibiotics.
(§5) in a humidified atmosphere containing 5% CO2. For sub-culturing, cells were detached from
(§6) 5 mL of fresh medium preheated at 37 °C. Cellular density was determined in a Neubauer

Data set [2] relates to HeLa cervical adenocarcinoma cells. Briefly: cells. The format is cell-based, human. The settings on record: MTT assay, 24 h exposure, run in triplicate or greater; read-out: IC50, Cervix HeLa. The method, then: as §1, §2, §3, §4, §5, §6
In data set [3] the test system is SK-BR-3 breast adenocarcinoma cells. Briefly: cells. The format is cell-based, human. The settings on record: MTT assay, 24 h exposure, run in triplicate or greater; read-out: IC50, Breast SK-BR-3. As for the experimental part:
as §1, §2, §3, §4, §5, §6

The test system of data set [4] is HT-29 colon adenocarcinoma cells. Description: cells. The format is cell-based, human. Particulars: MTT assay, 24 h exposure, run in triplicate or greater; read-out: IC50, Colon HT-29. As for the experimental part: as §1, §2, §3, §4, §5, §6
The subject of another data set is red blood cells. The settings on record: human RBCs, PBS, 1 h at 37 °C, concentrations up to 100 μM, absorbance 560 nm, n=3.
The next data set relates to HeLa cells. Description: DEVDase (caspase 3/7) activity, Ac-DEVD-AFC substrate. The format is cell-based, human. The settings on record: 100 nM, 16 h of treatment.

The values that follow come from publication PMC5666514 (Chemical Science, 2015).

*1 amine or outer side, *2 acyl side, *3 side chain or, on linkers, in order; H or OH if unused. Where a SMILES comes first, the peptide text is derived from it. [ ]: non-standard residue; d: D form. The star is where a group is joined. Quinoxaline2carbonyl = O=C(c1cnc2ccccc2n1)*; Ethylenediamine = C(CN[*:2])N[*:1]; Abu = CC[C@H](N)C(=O)O

Procedure for HeLa cells: Data are mean ± s.e.m. […] Data are given as mean ± s.e.m. […] Non-treated cells were used as control. (F, right panel) Densitometric quantification of cleaved caspase 3 and cleaved PARP levels (relative to control, non-treated cells). β-actin was used for loading normalization. Data are mean ± s.e.m.
Thus, we used the fluorogenic substrate Ac–DEVD–AFC as an indicator of the activation of effector caspases, which are the executioners of apoptosis.
(E) HeLa cells were treated as in (D) and apoptosis was assessed by DEVDase activity (right panel) and western blot of PARP1 and caspase-3 (left panel). β-actin was used for loading normalization. Data are mean ± s.e.m.
DEVDase activity was determined in 30 g of RIPA total protein cell lysate (without protease
inhibitors). Cleavage of the fluorogenic substrated Ac-DEVD-AFC. Caspase 3 and PARP
cleavage were determined in 50 g RIPA total protein cell lysate of control and treated cells.

Consider `CC[C@H](NC(=O)[C@H](CO)NC(=O)c1cnc2ccccc2n1)C(=O)N[C@H](C(=O)N[C@H](C(=O)N1CCC[C@@H]1C(=O)NCC(=O)N[C@H](C(=O)N[C@H](C(=O)N[C@@H](CC)C(=O)NCCNC(=O)c1cnc2ccccc2n1)C(C)C)C(C)C)C(C)C)C(C)C` [RZ2] (Quinoxaline2carbonyl-S[Abu]VV[dP]GVV[Abu]-{Ethylenediamine-Quinoxaline2carbonyl}), for which the IC50 in data set [1] amounted to 11.9 µM; in data set [2] it was 2.7 µM; in data set [3] it was 5.4 µM; in data set [4] it was 6.8 µM. For the same compound, the “hemolysis (hemoglobin release from red blood cells)” value in the data set with red blood cells was “not hemolytic”.

With `CO/C1=C\C(C)=C\[C@@H](C)[C@@H](O)[C@@H](C)C/C(C)=C/C=C/[C@H](OC)[C@@H]([C@@H](C)[C@@H](O)[C@H](C)[C@@]2(O)C[C@@H](O)[C@H](C)[C@@H](C(C)C)O2)OC1=O` [bafilomycin A1], the “apoptosis induction (DEVDase activity, PARP1 and caspase-3 western blot)” value in the data set with HeLa cells is “induces apoptosis”.
